Results as given in patent US12297238B2, “FimH mutants, compositions therewith and use thereof” (Janssen Pharmaceuticals, Inc., priority 2021, dated 2025).

Assays:
Conditions in all cases: SPR, HBS-N pH 7.4, single cycle kinetics
[1] = biological target: E. coli FimH lectin domain (FimHLD 23-10, SEQ ID NO: 1) variant R60P (Escherichia coli, UniProt P08191, R81P/V48A)
Method: (§1) To gain a detailed insight into the binding affinity and kinetics of the interaction of FimH lectin domain variants with the n-Heptyl-α-D-mannopyranoside ligand, surface plasmon resonance (SPR) measurements were performed. In brief, the FimH variants were titrated into the Mannoside ligand 5 surface (Rabbani S et al, J Biol. Chem., 2018, 293(5):1835-1849) with the top concentrations of either 3 or 10 μM in HBS-N(0.01 M HEPES, pH 7.4, 0.15 M NaCl, 3 mM EDTA, 0.05% surfactant P20). The proteins were injected from 0.12 to 10 μM or 0.036 to 3.0 μM using a single cycle kinetics injection.
(§2) These mutants were taken as positive controls. […] Additionally, wild-type (WT) FimH lectin domain was taken along as a negative control.
(§3) The variants affinity for binding to mannose was assessed using SPR.

[2] = biological target: E. coli FimH lectin domain (FimHLD 23-10, SEQ ID NO: 1) variant F144V/F71Y (Escherichia coli, UniProt P08191, F165V/F92Y/V48A)
Method: as §1, §2, §3

[3] = biological target: E. coli FimH lectin domain (FimHLD 23-10, SEQ ID NO: 1) variant F71Y (Escherichia coli, UniProt P08191, F92Y/V48A)
Method: as §1, §2, §3

[4] = biological target: E. coli FimH lectin domain (FimHLD 23-10, SEQ ID NO: 1) variant Q133K (Escherichia coli, UniProt P08191, Q154K/V48A)
Method: as §1, §2, §3

[5] = biological target: E. coli FimH lectin domain (FimHLD 23-10, SEQ ID NO: 1) variant F144V (Escherichia coli, UniProt P08191, F165V/V48A)
Method: as §1, §2, §3

[6] = biological target: E. coli FimH lectin domain (FimHLD 23-10, SEQ ID NO: 1) variant R60P-Q133K (Escherichia coli, UniProt P08191, Q154K/R81P/V48A)
Method: as §1, §2, §3

Chain of E. coli FimH lectin domain (FimHLD 23-10, SEQ ID NO: 1) variant F71Y (P08191 22-180 V48A/F92Y): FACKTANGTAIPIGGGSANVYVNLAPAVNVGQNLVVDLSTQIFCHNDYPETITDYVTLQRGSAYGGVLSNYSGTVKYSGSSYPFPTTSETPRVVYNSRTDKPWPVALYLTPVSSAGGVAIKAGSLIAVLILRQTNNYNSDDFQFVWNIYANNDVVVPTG
Chain of E. coli FimH lectin domain (FimHLD 23-10, SEQ ID NO: 1) variant Q133K (P08191 22-180 V48A/Q154K): as the sequence (P08191 22-180 V48A/F92Y) above, with Y71F, Q133K counted along it
Chain of E. coli FimH lectin domain (FimHLD 23-10, SEQ ID NO: 1) variant R60P (P08191 22-180 V48A/R81P): as the sequence (P08191 22-180 V48A/F92Y) above, with R60P, Y71F counted along it
Chain of E. coli FimH lectin domain (FimHLD 23-10, SEQ ID NO: 1) variant F144V (P08191 22-180 V48A/F165V): as the sequence (P08191 22-180 V48A/F92Y) above, with Y71F, F144V counted along it
Chain of E. coli FimH lectin domain (FimHLD 23-10, SEQ ID NO: 1) variant R60P-Q133K (P08191 22-180 V48A/R81P/Q154K): as the sequence (P08191 22-180 V48A/F92Y) above, with R60P, Y71F, Q133K counted along it
Chain of E. coli FimH lectin domain (FimHLD 23-10, SEQ ID NO: 1) variant F144V/F71Y (P08191 22-180 V48A/F92Y/F165V): as the sequence (P08191 22-180 V48A/F92Y) above, with F144V counted along it

CCCCCCCO[C@H]1O[C@H](CO)[C@@H](O)[C@H](O)[C@@H]1O [n-Heptyl-α-D-mannopyranoside]
Affinity (KD) [1]: low affinity | Affinity (KD) [2]: completely abolished | Affinity (KD) [3]: some affinity | Affinity (KD) [4]: did not bind to mannoside at all | Affinity (KD) [5]: completely abolished | Affinity (KD) [6]: did not bind to mannoside at all
